Experimental data taken from US20110053883A1, “AGENT THAT MODULATES PHYSIOLOGICAL CONDITION OF PESTS, INVOLVED IN INSECT C-JUN AMINO-TERMINAL KINASE ACTIVITY” (SUMITOMO CHEMICAL COMPANY, LIMITED, priority 2005, published 2011).
Where two headings read alike, the source gives them in different places.

Experiments:
[1] = molecular target: aphid c-Jun NH2-terminal kinase (Aphis gossypii, UniProt A0A9P0JGV4); assay: In vitro aphid c-Jun NH2-terminal kinase activity measurement (IMAP fluorescence polarization, peptide substrate); type: biochemical, cotton aphid (Aphis gossypii); conditions: for IC50: concentrations 100 μM to 0.03 μM, XLfit, read-out: Activity of inhibiting c-Jun NH2-terminal kinase activity (IC50, (μM)); for inhibition at 10 µM: test compound at final concentration of 10 μM, relative to DMSO, read-out: Activity of inhibiting c-Jun NH2-terminal kinase activity (inhibition degree (%) at 10 μM addition)
Sequence of aphid c-Jun NH2-terminal kinase (A0A9P0JGV4 entry or part of it): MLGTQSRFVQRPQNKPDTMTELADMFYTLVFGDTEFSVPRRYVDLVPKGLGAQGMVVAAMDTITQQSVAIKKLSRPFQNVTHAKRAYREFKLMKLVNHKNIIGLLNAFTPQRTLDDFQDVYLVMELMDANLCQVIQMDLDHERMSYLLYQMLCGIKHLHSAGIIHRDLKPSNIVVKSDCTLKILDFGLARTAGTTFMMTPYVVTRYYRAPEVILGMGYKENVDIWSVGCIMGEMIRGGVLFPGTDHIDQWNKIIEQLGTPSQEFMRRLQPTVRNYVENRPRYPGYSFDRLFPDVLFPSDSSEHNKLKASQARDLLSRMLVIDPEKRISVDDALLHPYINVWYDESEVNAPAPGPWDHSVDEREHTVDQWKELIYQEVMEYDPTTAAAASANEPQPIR
Procedure: Selection of a compound which modulates the activity of a c-Jun NH2-terminal kinase was performed in a system where the activity of a c-Jun NH2-terminal kinase which is modulated by adding a test compound to an in vitro reaction system using the aphid c-Jun NH2-terminal kinase prepared in Example 7 is measured and evaluated.
Measurement of the activity of the aphid c-Jun NH2-terminal kinase was performed using IMAP screening Express Kit with progressive Binding system (manufactured by Molecular Device) according to a method described in the manual annexed to the system and employing, as a substrate, a peptide comprising the amino acid sequence of SEQ ID NO: 13 to which biotin was added at the amino-terminus, and a peptide comprising the amino acid sequence of SEQ ID NO: 14 in which the carboxyl-terminus was fluorescently labeled.
For measuring the activity, the activity of the aphid c-Jun NH2-terminal kinase was measured when a test compound dissolved in DMSO was contained to a final concentration of 10 μM. In addition, the activity of the aphid c-Jun NH2-terminal kinase was measured when DMSO was contained in place of a test compound. Then, a ratio (%) of a measured value of the activity of the aphid c-Jun NH2-terminal kinase when a test compound dissolved in DMSO was contained, relative to a measured value of the activity of aphid c-Jun NH2-terminal kinase when DMSO was contained in place of the test compound was calculated, and a value obtained by subtracting the calculated value from 100% was adopted as an inhibition degree (%). Results in each test compound are shown in Table 4 in Example 9 together with results of Example 9.
The activity of aphid c-Jun NH2-terminal kinase was measured when a test compound dissolved in DMSO was contained to a final concentration of each concentration of 100 μM, 30 μM, 10 μM, 3 μM, 1 μM, 0.3 μM, 0.1 μM or 0.03 μM. IC50 (μM) was calculated from the result of each concentration at each test compound using a concentration-dependent test analyzing software XL fit (manufactured by idbs). Results are shown in Table 5 in Example 10 together with results of Example 9.

[2] = system: Aphis gossypii; assay: Pesticidal activity test, rearing on artificial feed containing the test compound; type: in vivo; conditions: 144 h, read-out: Determination result of pesticidal activity; for pest or weed control at 50 ppm: test compound in DMSO to a final concentration of 50 ppm
Procedure: A sterilized artificial feed having the following composition (Table 3) was prepared. Then, according to the same manner as that of the method described in Handbook of Insect Rearing Vol. 1 (Elsevier Science Publishers 1985) pp. 35 to pp. 36 except that a test compound dissolved in DMSO to a final concentration of 640 μM was added at 0.5 volume of the artificial feed, and components were mixed, Aphis gossypii was reared. […] Controlling value(%)={1−(Cb×Tai)/(Cai×Tb)}×100 Letters in the equation represent the following meanings. Cb: Number of surviving worms before treatment in non-treated section Cai: Number of surviving worms at observation in non-treated section Tb: Number of surviving worms before treatment in treated section Tai: Number of surviving worms at observation in treated section […]

[3] = in artificial feed, surviving Aphis gossypii six days after rearing
[4] = test compound in DMSO to a final concentration of 640 μM, in artificial feed, surviving Aphis gossypii six days after rearing

SMILES | IC50 [1] | pest or weed control at 50 ppm [2, 3] | inhibition at 10 µM [1] | pest or weed control at 640 µM ([2]; Aphis gossypii) | pest or weed control at 640 µM [2, 4]
Sc1ncnc2nc[nH]c12 [DD08068] | > 100 µM | < 30% | – | – | –
COc1ccc(C(=O)c2ccccc2)c(O)c1 [DD08100] | > 100 µM | < 30% | – | – | –
CCOC(=O)/C(=C(/F)SCC(C)=O)C(F)(F)F [DF06524] | 47.9 µM | > 30% | – | – | –
CC(C)(C)n1nc(-c2cccc3ccccc23)c2c(N)ncnc21 [4-amino-1-tert-butyl-3-(1-naphthyl) pyrazolo(3,4-d) pyrimidine, reference compound] | – | – | 68% | > 30% | –
O=C1NC(=O)C(c2c[nH]c3ccccc23)=C1c1c[nH]c2ccccc12 [Arcyriarubin A, reference compound] | – | – | 73% | – | > 30%
O=C1CC2(Oc3ccccc3O2)C(=O)O1 [DB04029] | > 100 µM | < 30% | – | – | –
OCC1OC(n2cnc3c(O)ncnc32)C(O)C1O (stereo not shown) [DC05429] | > 100 µM | < 30% | – | – | –
O=C1c2ccccc2-c2n[nH]c3cccc1c23 [Anthra[1,9-CD] pyrazole-6(2H)-one, reference compound] | – | – | 83% | – | > 30%
